Reference: patent publication US6034067A, “Serine protease inhibitors” (Akzo Nobel, N.V., priority 1996, dated 2000)

The compounds below were run against T1, Human thrombin (Homo sapiens, UniProt P00734) (assay: Anti-thrombin assay (hydrolysis of chromogenic substrate S-2238 by thrombin)). Conditions: final concentration causing 50% inhibition of the maximum absorbance of the blank; S-2238 substrate, TNP buffer pH 7.4, 37° C., absorbance at 405 nm.
T1 construct: purchased Centraal Laboratorium voor Bloedtransfusie, Amsterdam, The Netherlands
Assay type: biochemical
Procedure: Thrombin (Factor IIa) is a factor in the coagulation cascade.
At room temperature 0.075 ml and 0.025 ml test compound or reference compound solutions or vehicle are alternately pipetted into the wells of a microtiter plate and these solutions are diluted with 0.115 ml and 0.0165 ml TNP buffer, respectively. […] The plate is incubated (with shaking for 30 s) at 37° C.
All data are collected in an IBM personal computer using LOTUS-MEASURE.

IC50 [nM]	SMILES
34	N=C(N)NC(=O)CCC(NC(=O)[C@@H]1CCCN1C(=O)[C@@H](CC1CCCCC1)NCC(=O)O)C(=O)c1nccs1 (stereo partly drawn) [Example 2, HOOC-CH2 -D-Cha-Pro-Glu(guanadine)-(2-thiazolyl)]
2590	CCS(=O)(=O)N[C@H](CC1CCCCC1)C(=O)N1CCC[C@H]1C(=O)NC(CCC(=O)NC(=N)N)C(=O)c1nccs1 (stereo partly drawn) [Example 4, EtSO2 -D-Cha-Pro-Glu(guanidine)-(2-thiazolyl)]

SMILES	IC50 [nM]
CN[C@H](CC1CCCCC1)C(=O)N1CCC[C@H]1C(=O)NC(CCC(=O)NC(=N)N)C(=O)c1nccs1 (stereo partly drawn) [Example 6, N-Me-D-Cha-Pro-Glu(guanidine)-(2-thiazolyl)]	320
